Data on one compound can be found in US20240117303A1, “METHODS AND COMPOSITIONS FOR GENERATING HUMAN MIDBRAIN DOPAMINERGIC NEURONS FROM NEURAL PROGENITOR CELLS” (Trailhead Biosystems Inc., priority 2022, published 2024).

“Also recorded” adds a separate entry of the source.

The experiment has as its system stage 1 neural stem cells. Briefly: HD-DoE 12-factor experiment for stage 2 recipe (first model, FIG. 5-7, 12). The experiment is classed as cell-based, human. Particulars: for factor contribution: positive impact. From the text: To further guide the differentiation of midbrain-committed neural stem cells to neural progenitor cells at stage 2, we performed an additional HD-DoE experiment. We thereby obtained additional gene regulatory models that were used for preparation of differentiation protocol. The basis of this was a 12-factor HD-DoE experiment with focus on initiation of differentiation of cells toward midbrain neural progenitor cells for an additional 3 days after termination of stage 1 treatment. Here, we focused on expression of LMX1A and FOXA2 in neural progenitor cells with low to zero expression of GBX2. LMX1A had significant high expression level in the model with value of 47888. Therefore, we used optimization setting for this gene to identify the positive factors. The factors in this experiment included SC79, MK2206, ZM336372, PD0325901, CHIR99021, A 83-01, TTNPB, AGN193109, GW3965, SR9243, Purmorphamine and GSI-XX.
To assess the impact of elimination of each validated factor, we used dynamic profile analysis and compared the expression level of genes of interest in absence of each finalized factor while others are present.
In the stage 2 recipe, each of the six finalized factors were removed while the other five factors were present and the expression levels of FOXA2, LMX1A and GBX2 were assessed, compared to the levels in the presence of all factors. According to the first experiment model, the absence of TTNPB lead to a rise of GBX2 expression, while the value of FOXA2 and LMX1A reduced drastically from 10,000 to 0 and 30,000 to 15,000, respectively. The absence of A 83-01 reduced the expression of FOXA2 from 10,000 to 7000, however, as expected, the value of LMX1A increased from 30,000 to 40,000. […] According to the second experiment model, the absence of BMP7 and MK2206 both reduced the level of FOXA2 while increasing the value of LMX1A, with BMP7 as the main effector that led to 0 expression of FOXA2.

Setting [1] is: dynamic profile / model, 12 effectors.

Regarding `Cc1c[nH]c(-c2cnc(NCCNc3ccc(C#N)cn3)nc2-c2ccc(Cl)cc2Cl)n1` [CHIR99021], the “impact on expression of FOXA2” value under setting [1] is listed as “reduces”. Also, the “impact on expression of LMX1A” value under setting [1] is reported as “positive effect; also recorded: positive impact”. Also, the “impact on expression level of GBX2” value (dynamic profile, 12 effectors) was “increases”. This compound yielded a factor contribution (model optimized for LMX1A) of 8.3 and a factor contribution (model optimized for maximum expression of FOXA2) of 10.7.
